Laboratory results taken from patent publication US8338565B2, “Macrocyclic compounds for inhibition of tumor necrosis factor alpha” (Ensemble Therapeutics Corporation, priority 2008, dated 2012).
Where two headings read alike, the source gives them in different places. Numbered stars: 1 amine (or outer) side, 2 acyl side, 3 side chain; on linkers, the order of the positions; unused ones are H or OH. Bridge positions count the residues as written; N and C are the ends. Square brackets hold non-standard residues; d marks the D form. Peptide text beside a SMILES is read from it. * marks the point of attachment. Tartaroyl(2R,3R-(OAc)2) = CC(=O)O[C@@H](C(=O)[*:1])[C@@H](OC(C)=O)C(=O)[*:2]; Phe(3,4-(OMe)2) = COc1ccc(C[C@H](N)C(=O)O)cc1OC; Phe(2,4-Cl2) = N[C@@H](Cc1ccc(Cl)cc1Cl)C(=O)O; Bip = N[C@@H](Cc1ccc(-c2ccccc2)cc1)C(=O)O; dPhe(4-NH2) = Nc1ccc(C[C@@H](N)C(=O)O)cc1; Phe(4-Br) = N[C@@H](Cc1ccc(Br)cc1)C(=O)O; Phe(4-NH2) = Nc1ccc(C[C@H](N)C(=O)O)cc1; dAla(2-furyl) = N[C@H](Cc1ccco1)C(=O)O; Lys(Me2) = CN(C)CCCC[C@H](N)C(=O)O; d(hPhe) = N[C@H](CCc1ccccc1)C(=O)O; d2Thi = N[C@H](Cc1cccs1)C(=O)O; Suc = O=C(CCC(=O)[*:2])[*:1]; Aib = CC(C)(N)C(=O)O; OtBu = CC(C)(C)O*

Target: T1, TNFα / TNFα receptor (TNFα R1/Fc) (Homo sapiens, UniProt P01375)
T1 construct: purchased R&D Systems
T1 sequence (P01375 77-233 limits assumed, species assumed): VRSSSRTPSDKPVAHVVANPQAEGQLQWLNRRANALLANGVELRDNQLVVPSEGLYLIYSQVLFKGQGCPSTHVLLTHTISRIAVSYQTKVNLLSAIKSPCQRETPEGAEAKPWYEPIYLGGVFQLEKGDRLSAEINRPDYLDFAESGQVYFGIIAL
Test: Inhibition of binding of TNFα to the TNFα receptor (plate ELISA competition)
Conditions: Table 2
Method in brief: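 Plates were coated with TNFα at 15 nM. Test compound and 8.33 nM receptor-Fc (PBST, 2% DMSO) were first mixed in solution for 30 min at room temperature, then transferred to the plates for another 30 min. Competition was read by absorbance at 450 nm after HRP anti-human IgG Fc detection with TMB.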

[1] = read-out: Activity (IC50, inhibition of TNFα binding to TNFα R1/Fc)

| Compound | IC50 [1] [µM] | IC50 (Activity (IC50, inhibition of TNFα binding to TNFα R1/Fc)) [µM] |
| --- | --- | --- |
| O=C(NCS(=O)(=O)O)[C@@H]1Cc2ccc(cc2)NC(=O)[C@H](O)[C@@H](O)C(=O)N[C@H](Cc2cccs2)C(=O)N[C@@H](Cc2ccc(-c3ccccc3)cc2)C(=O)N[C@H](CCc2ccccc2)C(=O)N1 [Compound 593] | < 10 | – |
| O=C(O)CCNC(=O)[C@@H]1Cc2ccc(cc2)NC(=O)[C@H](O)[C@@H](O)C(=O)N[C@H](Cc2cccs2)C(=O)N[C@@H](Cc2ccc(-c3ccccc3)cc2)C(=O)N[C@H](Cc2ccccc2)C(=O)N1 [Compound 175] | < 10 | – |
| O=C1COc2ccc(cc2)C[C@H](C(=O)N[C@H](CCc2ccccc2)C(=O)O)NC(=O)[C@H](Cc2ccccc2F)NC(=O)[C@@H](Cc2ccc(-c3ccccc3)cc2)NC(=O)[C@H](Cc2ccncc2)N1 [Compound 736] | < 10 | – |
| O=C1COc2ccc(cc2)C[C@@H](C(=O)O)NC(=O)[C@@H](Cc2ccccc2)NC(=O)[C@@H](Cc2ccc(-c3ccccc3)cc2)NC(=O)[C@H](Cc2cccs2)N1 [Compound 210] | > 100 | – |
| O=C1COc2ccc(cc2)C[C@@H](C(=O)O)NC(=O)[C@@H]2CCCN2C(=O)[C@H](Cc2ccc(-c3ccccc3)cc2)NC(=O)[C@H](Cc2cccs2)N1 [Compound 255] | > 100 | – |
| O=C1COc2ccc(cc2)C[C@@H](C(=O)O)NC(=O)[C@@H](CCc2ccccc2)NC(=O)[C@H](Cc2ccc(C(F)(F)F)cc2)NC(=O)[C@@H](CCc2ccccc2)N1 [Compound 151] | 30 to 100 | – |
| O=C(Nc1ccc(-c2ccc(C[C@@H]3NC(=O)[C@@H](Cc4cccs4)NC(=O)[C@H](O)[C@@H](O)C(=O)Nc4ccc(cc4)C[C@@H](C(=O)O)NC(=O)[C@@H](Cc4ccccc4)NC3=O)cc2)cc1)OCc1ccccc1 [Compound 336] | 10 to 30 | – |
| O=C1COc2ccc(cc2)C[C@@H](C(=O)N[C@H](CO)C(=O)O)NC(=O)[C@H](CCc2ccccc2)NC(=O)[C@@H](Cc2ccc(-c3ccccc3)cc2)NC(=O)[C@H](Cc2ccc(-c3ccncc3)cc2)N1 [Compound 584] | < 10 | – |
| O=C1CCC(=O)N[C@H](Cc2cccs2)C(=O)N[C@@H](Cc2ccc(-c3ccccc3)cc2)C(=O)N[C@H](Cc2ccccc2)C(=O)Nc2ccc(cc2)C[C@@H](C(=O)O)N1 [Compound 549] | > 100 | – |
| Cc1ccc(C[C@@H]2NC(=O)COc3ccc(cc3)C[C@@H](C(=O)O)NC(=O)[C@H](CCc3ccccc3)NC(=O)[C@@H](Cc3ccc(-c4ccccc4)cc3)NC2=O)cc1 [Compound 692] | < 10 | – |
| O=C1CCC(=O)N[C@H](Cc2cccs2)C(=O)N[C@@H](Cc2ccc(O)cc2)C(=O)N[C@H](Cc2ccccc2)C(=O)N[C@H](C(=O)O)Cc2ccc(cc2)N1 [Compound 87] ([d2Thi]Y[dF][Phe(4-NH2)]-OH; linker N-4 via Suc) | > 100 | – |
| O=C1COc2ccc(cc2)C[C@@H](C(=O)O)NC(=O)[C@@H]2CCCN2C(=O)[C@@H](Cc2ccc(-c3ccccc3)cc2)NC(=O)[C@H](Cc2cccs2)N1 [Compound 250] | > 100 | – |
| O=C1COc2ccc(cc2)C[C@@H](C(=O)O)NC(=O)[C@H](CCc2ccccc2)NC(=O)[C@@H](Cc2ccc(-c3cccnc3)cc2)NC(=O)[C@H](Cc2ccncc2)N1 [Compound 665] | 10 to 30 | – |
| O=C1N[C@@H](C(=O)O)Cc2ccc(cc2)NC(=O)[C@H](O)[C@@H](O)C(=O)N[C@@H](Cc2cccs2)C(=O)N[C@H](Cc2ccc(-c3ccccc3)cc2)C(=O)N[C@H]1Cc1ccccc1 [Compound 279] | > 100 | – |
| O=C1COc2ccc(cc2)C[C@H](C(=O)O)NC(=O)[C@H](Cc2ccccc2F)NC(=O)[C@@H](Cc2ccc(-c3ccccc3)cc2)NC(=O)[C@H](Cc2c[nH]c3ccccc23)N1 [Compound 728] | 10 to 30 | – |
| O=C1CCC(=O)N[C@H](CCc2ccccc2)C(=O)NC(c2ccc(Br)cc2)C(=O)N[C@H](Cc2ccccc2)C(=O)N[C@H](C(=O)O)Cc2ccc(cc2)N1 (stereo partly drawn) [Compound 183] | 10 to 30 | – |
| O=C1COc2ccc(cc2)C[C@@H](C(=O)O)NC(=O)[C@@H](Cc2ccncc2)NC(=O)[C@H](Cc2ccc(-c3ccccc3)cc2)NC(=O)[C@@H](Cc2cccs2)N1 [Compound 536] | < 10 | – |
| CC(=O)O[C@H]1C(=O)Nc2ccc(cc2)C[C@H](C(=O)O)NC(=O)[C@@H](CCc2ccccc2)NC(=O)[C@H](Cc2ccc(Cl)cc2Cl)NC(=O)[C@@H](Cc2ccccc2)NC(=O)[C@@H]1OC(C)=O [Compound 220] ([dF][Phe(2,4-Cl2)][d(hPhe)][dPhe(4-NH2)]-OH; linker N-4 via Tartaroyl(2R,3R-(OAc)2)) | 10 to 30 | – |
| CC(C)(NC(=O)[C@@H]1Cc2ccc(cc2)NC(=O)CCC(=O)N[C@H](Cc2cccs2)C(=O)N[C@@H](Cc2ccc(-c3ccccc3)cc2)C(=O)N[C@H](CCc2ccccc2)C(=O)N1)C(=O)O [Compound 452] ([d2Thi][Bip][d(hPhe)][Phe(4-NH2)][Aib]-OH; linker N-4 via Suc) | > 100 | – |
| O=C1COc2ccc(cc2)C[C@@H](C(=O)O)NC(=O)[C@H](CCc2ccccc2)NC(=O)[C@@H](Cc2ccc(-c3ccccc3)cc2)NC(=O)[C@H](Cc2cccnc2)N1 [Compound 662] | < 10 | – |

| Compound | IC50 [1] [µM] | IC50 (Activity (IC50, inhibition of TNFα binding to TNFα R1/Fc)) [µM] |
| --- | --- | --- |
| CC(=O)O[C@H]1C(=O)Nc2ccc(cc2)C[C@H](C(=O)O)NC(=O)[C@@H](Cc2ccccc2)NC(=O)[C@H](Cc2ccc(Br)cc2)NC(=O)[C@@H](Cc2cccs2)NC(=O)[C@@H]1OC(C)=O [Compound 232] ([d2Thi][Phe(4-Br)][dF][dPhe(4-NH2)]-OH; linker N-4 via Tartaroyl(2R,3R-(OAc)2)) | > 100 | – |
| CC(C)(C)Oc1ccc(C[C@@H]2NC(=O)COc3ccc(cc3)C[C@@H](C(=O)O)NC(=O)[C@H](CCc3ccccc3)NC(=O)[C@@H](Cc3ccc(-c4ccccc4)cc3)NC2=O)cc1 [Compound 514] | < 10 | – |
| O=C1COc2ccc(cc2)C[C@@H](C(=O)O)NC(=O)[C@H](Cc2ccccc2)NC(=O)[C@H](Cc2cccc(C(F)(F)F)c2)NC(=O)[C@H](Cc2cccs2)N1 [Compound 400] | < 10 | – |
| CC(C)(C)OC(=O)C[C@H]1NC(=O)[C@H](Cc2ccc(-c3ccccc3)cc2)NC(=O)[C@@H](Cc2cccs2)NC(=O)CCC(=O)Nc2ccc(cc2)C[C@@H](C(=O)O)NC1=O [Compound 63] ([d2Thi][Bip][dD](OtBu)[Phe(4-NH2)]-OH; linker N-4 via Suc) | > 100 | – |
| Cn1cnc(C[C@@H]2NC(=O)COc3ccc(cc3)C[C@@H](C(=O)O)NC(=O)[C@H](CCc3ccccc3)NC(=O)[C@@H](Cc3ccc(-c4ccccc4)cc3)NC2=O)c1 [Compound 706] | 10 to 30 | – |
| O=C1COc2ccc(cc2)C[C@H](C(=O)O)NC(=O)[C@H](Cc2ccccc2)NC(=O)[C@@H](Cc2ccc(-c3ccccc3)cc2)NC(=O)[C@H](Cc2cccs2)N1 [Compound 675] | > 100 | – |
| O=C1CCC(=O)N[C@H](Cc2cccs2)C(=O)N[C@@H](Cc2ccc(-c3ccccc3)cc2)C(=O)N[C@H](Cc2ccccc2)C(=O)N[C@H](C(=O)O)Cc2ccc(cn2)N1 [Compound 545] | 10 to 30 | – |
| O=C1COc2ccc(cc2)C[C@@H](C(=O)N[C@@H](Cc2ccccc2)c2nnn[nH]2)NC(=O)[C@H](Cc2ccccc2)NC(=O)[C@@H](Cc2ccc(-c3ccccc3)cc2)NC(=O)[C@H](Cc2cccs2)N1 [Compound 590] | – | < 10 |
| O=C1COc2ccc(cc2)C[C@@H](C(=O)O)NC(=O)[C@H](CCc2ccccc2)NC(=O)[C@@H](Cc2ccc(-c3ccccc3)cc2)NC(=O)[C@H](Cc2ccc(F)cc2)N1 [Compound 679] | < 10 | – |
| CN(C)CCCC[C@@H]1NC(=O)[C@@H](Cc2cccs2)NC(=O)CCC(=O)Nc2ccc(cc2)C[C@@H](C(=O)O)NC(=O)[C@@H](Cc2ccccc2)NC1=O [Compound 203] ([d2Thi][Lys(Me2)][dF][Phe(4-NH2)]-OH; linker N-4 via Suc) | > 100 | – |
| C[C@H](NC(=O)[C@@H]1Cc2ccc(cc2)OCC(=O)N[C@@H](Cc2cccs2)C(=O)N[C@H](Cc2ccc(-c3ccccc3)cc2)C(=O)N[C@@H](CCc2ccccc2)C(=O)N1)C(=O)O [Compound 473] | < 10 | – |
| O=C1CCC(=O)N[C@H](Cc2cccs2)C(=O)N[C@@H](Cc2ccc(-c3ccccc3)cc2)C(=O)N[C@@H](CO)C(=O)N[C@H](C(=O)O)Cc2ccc(cc2)N1 [Compound 60] ([d2Thi][Bip]S[Phe(4-NH2)]-OH; linker N-4 via Suc) | > 100 | – |
| O=C(O)CCCNC(=O)[C@@H]1Cc2ccc(cc2)OCC(=O)N[C@@H](Cc2ccncc2)C(=O)N[C@H](Cc2ccc(-c3ccccc3)cc2)C(=O)N[C@@H](CCc2ccccc2)C(=O)N1 [Compound 560] | < 10 | – |
| O=C1COc2ccc(cc2)C[C@@H](C(=O)O)NC(=O)[C@H](Cc2ccc(-c3cccnc3)cc2)NC(=O)[C@@H](Cc2ccc(-c3ccccc3)cc2)NC(=O)[C@H](Cc2ccncc2)N1 [Compound 644] | < 10 | – |
| O=C1COc2ccc(cc2)C[C@@H](C(=O)O)NC(=O)[C@H](Cc2c[nH]c3ccccc23)NC(=O)[C@@H](Cc2ccc(-c3ccccc3)cc2)NC(=O)[C@H](Cc2ccncc2)N1 [Compound 653] | < 10 | – |
| O=C1COc2ccc(cc2)C[C@@H](C(=O)NCCCS(=O)(=O)O)NC(=O)[C@H](CCc2ccccc2)NC(=O)[C@@H](Cc2ccc(-c3ccccc3)cc2)NC(=O)[C@H](Cc2ccncc2)N1 [Compound 599] | < 10 | – |
| COc1ccc(C[C@@H]2NC(=O)[C@@H](Cc3cccs3)NC(=O)CCC(=O)Nc3ccc(cc3)C[C@@H](C(=O)O)NC(=O)[C@@H](Cc3ccccc3)NC2=O)cc1OC [Compound 93] ([d2Thi][Phe(3,4-(OMe)2)][dF][Phe(4-NH2)]-OH; linker N-4 via Suc) | > 100 | – |
| O=C(O)[C@@H]1Cc2ccc(cc2)NC(=O)[C@H](O)[C@@H](O)C(=O)N[C@@H](Cc2cccs2)C(=O)N[C@H](Cc2ccc(-c3ccccc3)cc2)C(=O)N[C@H](Cc2ccccc2)C(=O)N1 [Compound 272] | > 100 | – |
| O=C1CCC(=O)N[C@H](Cc2cccs2)C(=O)N[C@@H](Cc2ccc(-c3ccccc3)cc2)C(=O)N[C@H](Cc2ccco2)C(=O)N[C@H](C(=O)O)Cc2ccc(cc2)N1 [Compound 48] ([d2Thi][Bip][dAla(2-furyl)][Phe(4-NH2)]-OH; linker N-4 via Suc) | 10 to 30 | – |
